The results in this text go back to BindingDB's records for doi:10.1016/j.bioorg.2016.01.007 (Universiti Teknologi Mara (Uitm), Puncak Alam Campus, 2016).

This assay addresses T1, Beta-glucuronidase (Bos taurus, UniProt A3KMY8).
T1 sequence (A3KMY8 whole entry): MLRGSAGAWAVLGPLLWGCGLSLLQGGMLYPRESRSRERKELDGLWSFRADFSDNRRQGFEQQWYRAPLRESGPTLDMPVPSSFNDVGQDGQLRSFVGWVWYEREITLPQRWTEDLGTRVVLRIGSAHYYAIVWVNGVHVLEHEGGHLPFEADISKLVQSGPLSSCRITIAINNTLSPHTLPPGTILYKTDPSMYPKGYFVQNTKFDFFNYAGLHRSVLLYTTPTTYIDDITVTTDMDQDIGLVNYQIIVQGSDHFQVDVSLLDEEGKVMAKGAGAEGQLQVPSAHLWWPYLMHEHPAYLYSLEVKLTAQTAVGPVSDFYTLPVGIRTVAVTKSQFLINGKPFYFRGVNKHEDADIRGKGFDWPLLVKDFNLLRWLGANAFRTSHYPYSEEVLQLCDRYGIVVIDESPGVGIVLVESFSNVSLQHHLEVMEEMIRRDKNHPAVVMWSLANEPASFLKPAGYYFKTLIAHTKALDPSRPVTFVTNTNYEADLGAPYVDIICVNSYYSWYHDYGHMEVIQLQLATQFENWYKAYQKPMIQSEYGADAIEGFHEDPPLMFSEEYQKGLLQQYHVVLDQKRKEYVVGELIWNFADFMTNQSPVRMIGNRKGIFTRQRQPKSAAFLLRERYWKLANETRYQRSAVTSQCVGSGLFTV
Nature of the assay: β-Glucuronidase Inhibition Assay. As to the method: The total reaction volume was set at 250 µL. The reaction mixture comprises of 185 µL of 0.1 M acetate buffer, 5 µL of test compound solution, 10 µL of enzyme solution and incubated at 37 °C for 30 min. […] All assays were carried out in triplicate.

Turning to `COc1ccc(O)c(-c2nc3ncc(Cl)cc3[nH]2)c1` [2-(6-Chloro-1H-imidazo[4,5-b]pyridin-2-yl)-4-methoxyphenol (13)], half-maximal inhibition (IC50) required 129 µM. In the case of `COc1ccc(-c2nc3ncc(Cl)cc3[nH]2)c(O)c1` [2-(6-Chloro-1H-imidazo[4,5-b]pyridin-2-yl)-5-methoxyphenol (19)], half-maximal inhibition (IC50) required 114 µM.

In the case of `Oc1cccc(-c2nc3ncc(Cl)cc3[nH]2)c1` [3-(6-Chloro-1H-imidazo[4,5-b]pyridin-2-yl)phenol (8)], the IC50 (in general, the concentration that gives 50% inhibition) came to 68.1 µM. As to `Oc1ccc(-c2nc3ncc(Cl)cc3[nH]2)c(O)c1` [4-(6-Chloro-1H-imidazo[4,5-b]pyridin-2-yl)benzene-1,3-diol (2)], the IC50 is 49.6 µM. `Oc1ccc(-c2nc3ncc(Cl)cc3[nH]2)cc1` [4-(6-Chloro-1H-imidazo[4,5-b]pyridin-2-yl)phenol (26)] registered a 50% inhibitory concentration (IC50) of 52.6 µM.
